This note sets out measurements from ChEMBL document CHEMBL2439953, “Dimeric argininamide-type neuropeptide Y receptor antagonists: chiral discrimination between Y1 and Y4 receptors” (Bioorg Med Chem, 2013).

In general, Ki refers to a measure of affinity in units of concentration, obtained from inhibition or displacement. In general, Kb refers to the affinity of an antagonist, worked out from how it opposes an agonist.

The target of assay [1] is T1, Neuropeptide Y receptor type 1 (Homo sapiens, UniProt P25929).
T1 sequence (P25929 whole entry): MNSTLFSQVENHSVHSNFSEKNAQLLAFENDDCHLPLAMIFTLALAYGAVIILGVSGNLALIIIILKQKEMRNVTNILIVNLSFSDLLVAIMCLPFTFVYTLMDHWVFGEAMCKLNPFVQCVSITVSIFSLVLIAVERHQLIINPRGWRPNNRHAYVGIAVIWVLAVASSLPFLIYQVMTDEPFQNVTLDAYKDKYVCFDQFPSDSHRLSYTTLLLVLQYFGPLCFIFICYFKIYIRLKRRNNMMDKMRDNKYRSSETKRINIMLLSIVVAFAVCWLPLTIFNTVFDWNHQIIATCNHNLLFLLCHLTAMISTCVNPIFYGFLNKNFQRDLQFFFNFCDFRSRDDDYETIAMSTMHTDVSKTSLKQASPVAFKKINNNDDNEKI
As to the kind of experiment: Displacement of [3H]UR-MK114 from human neuropeptide Y receptor type 1 expressed in human SK-N-MC cells. The assay is classed as cell-based.

Assay [2] addresses T2, Neuropeptide Y receptor type 4 (Homo sapiens, UniProt P50391). As to the kind of experiment: Antagonist activity at human neuropeptide Y receptor type 4 expressed in CHO cells co-expressing Gqi5-mtAEQ assessed as inhibition of hPP-induced calcium mobilization by Aequorin assay. The assay is classed as functional, cell-based. For orientation: Calcium assays in cells follow changes in intracellular calcium, usually with a dye or a luminescent sensor.

In assay [3] the target is T3, Neuropeptide Y receptor type 5 (Homo sapiens, UniProt Q15761).
T3 sequence (Q15761 whole entry): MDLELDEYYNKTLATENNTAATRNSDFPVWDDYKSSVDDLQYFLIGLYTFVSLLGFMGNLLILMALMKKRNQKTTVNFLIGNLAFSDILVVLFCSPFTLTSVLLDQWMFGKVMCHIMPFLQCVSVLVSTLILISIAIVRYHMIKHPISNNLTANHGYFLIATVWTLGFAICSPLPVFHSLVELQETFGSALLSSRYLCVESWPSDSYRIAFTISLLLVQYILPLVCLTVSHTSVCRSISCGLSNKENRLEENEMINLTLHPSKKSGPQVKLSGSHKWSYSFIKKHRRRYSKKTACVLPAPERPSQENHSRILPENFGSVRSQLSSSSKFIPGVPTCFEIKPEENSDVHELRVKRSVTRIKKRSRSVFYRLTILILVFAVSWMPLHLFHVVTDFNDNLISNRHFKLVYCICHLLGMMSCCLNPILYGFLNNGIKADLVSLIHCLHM
Kind of assay: Binding affinity to human neuropeptide Y receptor type 5 receptor expressed in HEC-1B cells using Cy5-pNPY by flow cytometric analysis. The assay is classed as cell-based.

The target of assay [4] is T2, Neuropeptide Y receptor type 4. As to the kind of experiment: Binding affinity to human neuropeptide Y receptor type 4 receptor expressed in CHO cells using Cy5-[K4]-hPP by flow cytometric analysis. The assay is classed as cell-based. (In general: In flow cytometry, cells or beads pass a laser one at a time.)
For assay [5], the target named is T4, Neuropeptide Y receptor type 2 (Homo sapiens, UniProt P49146).
T4 sequence (P49146 whole entry): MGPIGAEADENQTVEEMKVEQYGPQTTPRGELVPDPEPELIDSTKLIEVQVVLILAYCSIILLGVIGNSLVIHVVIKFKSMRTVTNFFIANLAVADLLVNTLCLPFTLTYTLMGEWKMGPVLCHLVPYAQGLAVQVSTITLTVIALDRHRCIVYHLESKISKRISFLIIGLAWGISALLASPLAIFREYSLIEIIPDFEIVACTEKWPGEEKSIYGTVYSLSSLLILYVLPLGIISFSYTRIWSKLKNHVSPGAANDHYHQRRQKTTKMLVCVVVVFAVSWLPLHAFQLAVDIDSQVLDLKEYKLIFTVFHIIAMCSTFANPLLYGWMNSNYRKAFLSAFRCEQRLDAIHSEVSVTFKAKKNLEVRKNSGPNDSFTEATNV
As to the kind of experiment: Binding affinity to human neuropeptide Y receptor type 2 receptor expressed in CHO cells using Cy5-pNPY by flow cytometric analysis. The format is cell-based.

Bounds are passed on as bounds.

T2 sequence (P50391 whole entry): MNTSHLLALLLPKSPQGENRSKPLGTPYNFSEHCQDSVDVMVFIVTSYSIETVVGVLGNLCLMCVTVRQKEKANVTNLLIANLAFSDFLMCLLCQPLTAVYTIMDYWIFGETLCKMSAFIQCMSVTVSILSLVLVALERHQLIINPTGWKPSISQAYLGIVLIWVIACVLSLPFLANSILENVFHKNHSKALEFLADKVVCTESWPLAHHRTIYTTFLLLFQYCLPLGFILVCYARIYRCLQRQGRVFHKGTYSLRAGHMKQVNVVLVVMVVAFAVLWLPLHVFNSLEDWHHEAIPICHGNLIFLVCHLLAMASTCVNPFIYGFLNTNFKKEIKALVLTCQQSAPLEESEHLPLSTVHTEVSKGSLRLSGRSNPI

As to `N=C(N)NCCC[C@@H](NC(=O)C(c1ccccc1)c1ccccc1)C(=O)NCc1ccc(CNC(=O)NCCCCNC(=O)CN)cc1`, the inhibition constant Ki in assay [1] came out at 0.014 µM.

Turning to `NCCNC(=O)CCC(=O)NCCNC(=O)CCC(=O)NCCNC(=O)/N=C(\N)NCCC[C@H](NC(=O)C(c1ccccc1)c1ccccc1)C(=O)NCc1ccc(CNC(N)=O)cc1`, the Ki in assay [1], in assay [3], in assay [4] and in assay [5] was above 5 µM each time. Besides, the antagonist equilibrium constant (Kb) in assay [2] was above 5 µM.

For `N=C(N)NCCC[C@@H](NC(=O)C(c1ccccc1)c1ccccc1)C(=O)NCc1ccc(CNC(=O)NCCCCNC(=O)CNC(=O)CCC(=O)NCCN(CCN)CCNC(=O)CCC(=O)NCC(=O)NCCCCNC(=O)NCc2ccc(CNC(=O)[C@@H](CCCNC(=N)N)NC(=O)C(c3ccccc3)c3ccccc3)cc2)cc1`, the inhibition constant Ki was 0.2 µM in assay [1], above 5 µM in assay [3], 2.2 µM in assay [4] and 2.3 µM in assay [5]. Moreover, the antagonist equilibrium constant (Kb) in assay [2] is 0.9 µM.

As for `NCCNC(=O)CCC(=O)NCCNC(=O)/N=C(\N)NCCC[C@H](NC(=O)C(c1ccccc1)c1ccccc1)C(=O)NCc1ccc(CNC(N)=O)cc1`, the Ki in assay [1] is above 5 µM; in assay [4], 4.1 µM; in assay [5], above 5 µM. Moreover, the antagonist equilibrium constant (Kb) in assay [2] is above 5 µM.

In turn, `N=C(N)NCCC[C@@H](NC(=O)C(c1ccccc1)c1ccccc1)C(=O)NCc1ccc(CNC(=O)NCCCCNC(=O)NCCN)cc1` returned a Ki in assay [1] of 0.89 µM.

For the compound `NCCC(=O)NCCNC(=O)CCC(=O)NCCNC(=O)CCC(=O)NCCNC(=O)/N=C(\N)NCCC[C@@H](NC(=O)C(c1ccccc1)c1ccccc1)C(=O)NCc1ccc(CNC(N)=O)cc1`, the Ki in assay [1] is 1.2 µM; in assay [4], above 5 µM.

As to `NCCN(CCNC(=O)CCCCC(=O)NCCCCNC(=O)/N=C(/N)NCCC[C@@H](NC(=O)C(c1ccccc1)c1ccccc1)C(=O)NCc1ccc(O)cc1)CCNC(=O)CCCCC(=O)NCCCCNC(=O)/N=C(/N)NCCC[C@@H](NC(=O)C(c1ccccc1)c1ccccc1)C(=O)NCc1ccc(O)cc1`, the inhibition constant (Ki) in assay [1] was 0.042 µM; in assay [3], above 5 µM; in assay [4] it was 0.55 µM; in assay [5], 1 µM. The Kb in assay [2] was found to be 0.032 µM.

Take `N=C(N)NCCC[C@@H](NC(=O)C(c1ccccc1)c1ccccc1)C(=O)NCc1ccc(CNC(=O)NCCCCN)cc1`: the Ki in assay [1] was 0.041 µM; in assay [4], above 5 µM. Also, in assay [2], the antagonist dissociation constant (Kb) was above 5 µM.

For `NCCCOCCOCCOCCNC(=O)CCC(=O)NCCNC(=O)/N=C(\N)NCCC[C@@H](NC(=O)C(c1ccccc1)c1ccccc1)C(=O)NCc1ccc(CNC(N)=O)cc1`, the figures for the Ki in assay [1] and in assay [4] were 0.071 µM and above 5 µM, respectively.

For the compound `NCCOCCOCCNC(=O)CCC(=O)NCCNC(=O)/N=C(\N)NCCC[C@@H](NC(=O)C(c1ccccc1)c1ccccc1)C(=O)NCc1ccc(CNC(N)=O)cc1`, the inhibitory constant (Ki) was 0.077 µM in assay [1] and above 5 µM in assay [4].

In assay [1], `NCCCCCCNC(=O)/N=C(/N)NCCC[C@@H](NC(=O)C(c1ccccc1)c1ccccc1)C(=O)NCc1ccc(O)cc1` registered a Ki of 0.0099 µM.

Take `NCCNC(=O)CCC(=O)NCCNC(=O)CCC(=O)NCCNC(=O)/N=C(\N)NCCC[C@@H](NC(=O)C(c1ccccc1)c1ccccc1)C(=O)NCc1ccc(CNC(N)=O)cc1`: the inhibition constant Ki was 1 µM in assay [1] and above 5 µM in assay [4].

Take `NCCC(=O)NCCNC(=O)CCC(=O)NCCNC(=O)/N=C(\N)NCCC[C@H](NC(=O)C(c1ccccc1)c1ccccc1)C(=O)NCc1ccc(CNC(N)=O)cc1`: the inhibition constant (Ki) in assay [1] is above 5 µM; in assay [3], above 5 µM; in assay [4] it was 3.3 µM; in assay [5], above 5 µM. The antagonist equilibrium constant (Kb) in assay [2] was above 5 µM.

Turning to `NC(=NCCC[C@@H](NC(=O)C(c1ccccc1)c1ccccc1)C(=O)NCc1ccc(O)cc1)NC(=O)CCCCCCC(=O)NC(N)=NCCC[C@@H](NC(=O)C(c1ccccc1)c1ccccc1)C(=O)NCc1ccc(O)cc1`, the values for the Ki in assay [1] and in assay [4] were 0.063 µM and 2 µM, respectively.

Turning to `NCCCOCCOCCOCCNC(=O)CCC(=O)NCCNC(=O)/N=C(\N)NCCC[C@H](NC(=O)C(c1ccccc1)c1ccccc1)C(=O)NCc1ccc(CNC(N)=O)cc1`, the Ki in assay [1] is above 5 µM; in assay [3] it was above 5 µM; in assay [4], 3.7 µM; in assay [5] it was above 5 µM. The Kb in assay [2] was above 5 µM.

Regarding `N=C(N)NCCCC(NC(=O)CC1(CC(=O)N2CCN(C3c4ccccc4NC(=O)c4ccccc43)CC2)CCCC1)C(=O)NCCn1c(=O)n(-c2ccccc2)n(-c2ccccc2)c1=O` (single isomer, unassigned), the Ki was above 5 µM in assay [1], above 5 µM in assay [3] and above 7.5 µM in assay [4].

Consider `NCCCCNC(=O)/N=C(/N)NCCC[C@@H](NC(=O)C(c1ccccc1)c1ccccc1)C(=O)NCc1ccc(O)cc1`, for which the Ki in assay [4] is above 5 µM.

For the compound `N=C(N)NCCC[C@@H](NC(=O)C(c1ccccc1)c1ccccc1)C(=O)NCc1ccc(CNC(N)=O)cc1`, the Kb in assay [2] was above 5 µM. The same compound came in with a Ki in assay [4] above 5 µM.

On to `NC(N)=NCCC[C@H](NC(=O)C(c1ccccc1)c1ccccc1)C(=O)NCc1ccc(O)cc1`, for which the Ki in assay [4] was above 5 µM.

As for `NCCCCCCNC(=O)/N=C(/N)NCCC[C@@H](NC(=O)C(c1ccccc1)c1ccccc1)C(=O)NCc1ccc(CNC(N)=O)cc1`, the inhibitory constant (Ki) was 0.2 µM in assay [1] and above 5 µM in assay [4]. In assay [2], the antagonist equilibrium constant (Kb) is above 5 µM.

As to `NCCOCCOCCNC(=O)CCC(=O)NCCNC(=O)/N=C(\N)NCCC[C@H](NC(=O)C(c1ccccc1)c1ccccc1)C(=O)NCc1ccc(CNC(N)=O)cc1`, the Ki in assay [1] is above 5 µM; in assay [3], above 5 µM; in assay [4], 3.2 µM; in assay [5], above 5 µM. In assay [2], the Kb was above 5 µM.

As to `NCCOCCOCCNC(=O)/N=C(/N)NCCC[C@H](NC(=O)C(c1ccccc1)c1ccccc1)C(=O)NCc1ccc(O)cc1`, the Ki in assay [1], in assay [3] and in assay [5] was above 5 µM each time.

As to `NCCNC(=O)CCC(=O)NCCNC(=O)/N=C(\N)NCCC[C@@H](NC(=O)C(c1ccccc1)c1ccccc1)C(=O)NCc1ccc(CNC(N)=O)cc1`, the results for the Ki in assay [1] and in assay [4] were 0.36 µM and above 5 µM, respectively.

For `NCCN(CCNC(=O)c1ccc(C(=O)NCCCCNC(=O)/N=C(/N)NCCC[C@@H](NC(=O)C(c2ccccc2)c2ccccc2)C(=O)NCc2ccc(O)cc2)cc1)CCNC(=O)c1ccc(C(=O)NCCCCNC(=O)/N=C(/N)NCCC[C@@H](NC(=O)C(c2ccccc2)c2ccccc2)C(=O)NCc2ccc(O)cc2)cc1`, the Ki in assay [1] is 0.053 µM; in assay [3] it was above 5 µM; in assay [4], 0.21 µM; in assay [5] it was 0.78 µM. Besides, in assay [2], the Kb was determined as 0.034 µM.

`NCCCCCCNC(=O)/N=C(/N)NCCC[C@H](NC(=O)CC1(CC(=O)N2CCN(C3c4ccccc4NC(=O)c4ccccc43)CC2)CCCC1)C(=O)NCCn1c(=O)n(-c2ccccc2)n(-c2ccccc2)c1=O` (some centres undefined): the results for the Ki in assay [1] and in assay [5] were above 5 µM and 0.007 µM, respectively.

`N=C(N)NCCOCCOCCNC(=O)/N=C(/N)NCCC[C@@H](NC(=O)C(c1ccccc1)c1ccccc1)C(=O)NCc1ccc(O)cc1`: the Ki in assay [1] was 0.13 µM; in assay [3] it was above 5 µM; in assay [4], 3.8 µM.

In assay [1], `CCC(=O)NCC(=O)NCCCCNC(=O)NCc1ccc(CNC(=O)[C@@H](CCCNC(=N)N)NC(=O)C(c2ccccc2)c2ccccc2)cc1` had a Ki of 0.073 µM.

`N=C(N)NCCC[C@@H](NC(=O)C(c1ccccc1)c1ccccc1)C(=O)NCc1ccc(O)cc1` had an inhibitory constant (Ki) in assay [4] above 5 µM.

Regarding `NCCC(=O)NCCNC(=O)CCC(=O)NCCNC(=O)/N=C(\N)NCCC[C@@H](NC(=O)C(c1ccccc1)c1ccccc1)C(=O)NCc1ccc(CNC(N)=O)cc1`, the Ki in assay [1] is 0.086 µM; in assay [4], above 5 µM.

In turn, `NCCOCCOCCNC(=O)/N=C(/N)NCCC[C@@H](NC(=O)C(c1ccccc1)c1ccccc1)C(=O)NCc1ccc(CNC(N)=O)cc1` registered a Ki in assay [1] of 0.031 µM.

Take `NCCOCCOCCNC(=O)/N=C(/N)NCCC[C@@H](NC(=O)C(c1ccccc1)c1ccccc1)C(=O)NCc1ccc(O)cc1`: the inhibition constant Ki in assay [1] was 0.0073 µM; in assay [3] it was above 5 µM; in assay [4], above 5 µM; in assay [5] it was above 5 µM.
